Measurements: patent US6924302B2, “Substituted triazole diamine derivatives as kinase inhibitors” (Ortho McNeil Pharmaceutical, Inc., priority 2000, dated 2005)
Like-named read-outs stand apart in the source and are kept apart here.

Columns and labels:
[1] = molecular target: T1, Glycogen Synthase Kinase-3 (beta isoform) (Oryctolagus cuniculus, UniProt G1T8E2); experiment: Kinase Selectivity Assay Glycogen Synthase Kinase-3; type: biochemical, rabbit
T1 construct: purchased New England Biolabs 6040; host or cells: E. coli
T1 sequence (G1T8E2 1-432): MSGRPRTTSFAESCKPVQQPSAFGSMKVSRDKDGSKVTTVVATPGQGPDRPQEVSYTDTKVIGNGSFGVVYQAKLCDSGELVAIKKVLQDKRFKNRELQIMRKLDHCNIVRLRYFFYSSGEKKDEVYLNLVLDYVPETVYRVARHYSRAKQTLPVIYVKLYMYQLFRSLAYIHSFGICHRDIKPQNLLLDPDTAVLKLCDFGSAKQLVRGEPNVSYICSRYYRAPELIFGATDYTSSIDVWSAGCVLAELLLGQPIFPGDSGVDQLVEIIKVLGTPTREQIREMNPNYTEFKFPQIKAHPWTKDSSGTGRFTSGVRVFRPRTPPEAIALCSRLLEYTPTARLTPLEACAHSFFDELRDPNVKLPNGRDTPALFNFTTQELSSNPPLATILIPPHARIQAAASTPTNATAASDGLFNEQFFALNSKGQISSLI
Experimental: (§1) Assays to test compound inhibition of other kinases were preformed using methods that measure the amount of phosphorylation of a biotinylated peptide substrate. Biotinylated peptide substrates were selected from the literature as appropriate for the enzyme being evaluated. […] Assay conditions vary slightly for each protein kinase, for example, insulin receptor kinase requires 10 mM MnCl2 for activity and Calmodulin-dependent protein kinase requires calmodulin and 10 mM CaCl2. These assay conditions are known in the art. The reaction mixture was dispensed into the wells of a streptavidin coated Flashplate and 1 μl drug stock in 100% DMSO was added to a 100 μl reaction volume resulting in a final concentration of 1% DMSO on the reaction. Enzyme was diluted in 50 mM Tris-HCl pH=8.0, 0.1% BSA and add to each well. The reaction was incubated for one hour at 30° C. in the presence of compound. After one hour the reaction mix was aspirated from the plate and the plate was washed with PBS containing 100 mM EDTA. The plate was read on a scintillation counter to determine ^33P-γ-ATP incorporated into the immobilized peptide. Test compounds were assayed in duplicate at 8 concentrations [100 uM, 10 uM, 1 uM, 100 nM, 10 nM, 1 nM, 100 pM, 10 pM]. A maximum and minimum signal for the assay was determined on each plate. The IC50 was calculated from the dose response curve of the percent inhibition of the maximum signal in the assay according to the formula [max signal—background/test compound signal—background (100)=% inhibition] by graphing the percent inhibition against the log concentration of test compound. Known inhibitor compounds appropriate for the kinase being assayed were also included on each plate.
(§2) CDK2 in complex with cyclin A is commercially available (Upstate Biotech, Lake Placid, N.Y.). The CDK4 complex was composed of a mouse CDK4 protein and a mouse Cyclin D1 protein (The mouse CDK4 protein was genetically fused to an N-terminal Flag-epitope tag and the mouse Cyclin D1 protein was fused with an N-terminal AU-1 epitope tag. The genes encoding these proteins were transferred to commercially available baculoviral vectors. The recombinant CDK4/D1 complex was then made by co-infecting commercially available insect cells with viruses carrying these two constructs). […] ERK-1 protein (Discontinued from Calbiochem). EGFR (epidermal growth factor receptor) is purified from human A431 cell membranes (Sigma, St. Louis, Mo., Cat.# E3641).

[2] = molecular target: T2, CDK1:Cyclin-B (Homo sapiens, UniProt P06493); experiment: CDK1 Screening Assay; type: biochemical
T2 construct: purchased New England Biolabs 6020; host or cells: insect cells
T2 sequence (P06493 whole entry): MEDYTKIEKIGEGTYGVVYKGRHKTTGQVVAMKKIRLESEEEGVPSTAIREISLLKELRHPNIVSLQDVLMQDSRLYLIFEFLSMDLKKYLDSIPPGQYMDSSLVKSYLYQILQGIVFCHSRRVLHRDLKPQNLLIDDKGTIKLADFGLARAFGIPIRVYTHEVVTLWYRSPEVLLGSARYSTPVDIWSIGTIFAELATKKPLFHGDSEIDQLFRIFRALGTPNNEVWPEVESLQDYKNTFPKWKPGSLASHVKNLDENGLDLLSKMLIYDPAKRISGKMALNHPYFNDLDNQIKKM
T2 sequence (P14635 whole entry partner): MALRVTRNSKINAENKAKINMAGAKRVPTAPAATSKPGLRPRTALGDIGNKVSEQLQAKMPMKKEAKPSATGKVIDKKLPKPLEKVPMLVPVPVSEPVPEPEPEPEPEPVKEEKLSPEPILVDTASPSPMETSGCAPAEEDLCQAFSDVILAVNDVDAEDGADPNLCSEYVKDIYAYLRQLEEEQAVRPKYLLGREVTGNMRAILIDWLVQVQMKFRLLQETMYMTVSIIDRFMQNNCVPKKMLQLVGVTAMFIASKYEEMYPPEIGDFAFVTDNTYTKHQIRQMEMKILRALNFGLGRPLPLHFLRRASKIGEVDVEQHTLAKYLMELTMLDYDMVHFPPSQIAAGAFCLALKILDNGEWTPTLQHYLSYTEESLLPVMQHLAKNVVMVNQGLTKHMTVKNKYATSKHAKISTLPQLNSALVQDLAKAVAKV
Summary of the method: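 Human CDK1:cyclin-B (30 ng/well) with biotinylated histone-H1 peptide and ^33P-γ-ATP, 1 h at 30° C, 1% DMSO, on streptavidin FlashPlate; incorporation read by scintillation.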

[3] = molecular target: T3, PDGF-R (platelet derived growth factor receptor) beta subunit kinase domain (Homo sapiens, UniProt P09619); experiment: Kinase Selectivity Assay PDGF-R; type: biochemical
T3 construct: nucleotides 1874-3507 of the human PDGF-R beta subunit kinase domain; polyhistidine (N)
T3 sequence (P09619 564-1106): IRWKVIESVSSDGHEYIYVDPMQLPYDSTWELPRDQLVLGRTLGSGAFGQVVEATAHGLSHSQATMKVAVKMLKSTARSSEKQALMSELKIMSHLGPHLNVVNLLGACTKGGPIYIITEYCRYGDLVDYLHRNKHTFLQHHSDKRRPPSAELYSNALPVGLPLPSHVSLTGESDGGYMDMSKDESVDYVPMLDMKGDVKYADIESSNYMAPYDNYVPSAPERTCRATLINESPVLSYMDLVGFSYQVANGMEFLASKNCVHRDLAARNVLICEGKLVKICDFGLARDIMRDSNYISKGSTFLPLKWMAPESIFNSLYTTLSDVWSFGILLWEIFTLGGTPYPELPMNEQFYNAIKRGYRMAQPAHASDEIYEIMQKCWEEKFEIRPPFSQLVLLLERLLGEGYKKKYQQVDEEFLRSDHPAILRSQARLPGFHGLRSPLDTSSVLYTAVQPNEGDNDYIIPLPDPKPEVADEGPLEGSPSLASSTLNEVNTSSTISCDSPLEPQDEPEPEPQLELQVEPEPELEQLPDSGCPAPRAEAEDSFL
Experimental: as §1, §2

[4] = molecular target: T4, Casein Kinase 2 (alpha and beta subunits) (Homo sapiens, UniProt P68400); experiment: Kinase Selectivity Assay Casein Kinase 2; type: biochemical
T4 construct: purchased New England Biolabs 6010; host or cells: E. coli
T4 sequence (P68400 whole entry): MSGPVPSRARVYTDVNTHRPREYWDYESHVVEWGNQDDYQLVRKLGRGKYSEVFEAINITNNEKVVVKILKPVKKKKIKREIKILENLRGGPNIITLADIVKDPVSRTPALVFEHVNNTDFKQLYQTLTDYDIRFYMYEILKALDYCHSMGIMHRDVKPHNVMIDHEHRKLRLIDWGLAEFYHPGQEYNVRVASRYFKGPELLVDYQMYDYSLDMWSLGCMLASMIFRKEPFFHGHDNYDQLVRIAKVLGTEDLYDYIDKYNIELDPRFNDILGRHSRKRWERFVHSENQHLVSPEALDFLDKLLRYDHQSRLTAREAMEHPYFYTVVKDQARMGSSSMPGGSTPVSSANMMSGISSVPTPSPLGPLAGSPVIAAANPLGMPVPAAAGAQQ
T4 sequence (P67870 whole entry partner): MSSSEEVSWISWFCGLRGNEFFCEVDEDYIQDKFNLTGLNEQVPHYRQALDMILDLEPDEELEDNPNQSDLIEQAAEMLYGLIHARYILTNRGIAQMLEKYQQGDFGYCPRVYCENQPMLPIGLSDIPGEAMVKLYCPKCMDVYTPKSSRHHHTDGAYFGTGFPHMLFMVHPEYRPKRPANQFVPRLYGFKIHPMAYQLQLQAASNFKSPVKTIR
Experimental: as §1, §2

[5] = molecular target: T5, VEGF-R (vascular endothelial growth factor receptor-2) (Rattus norvegicus, UniProt O08775); experiment: VEGF-R Screening Assay; type: biochemical
T5 construct: polyhistidine (6xHIS) (N)
T5 sequence (O08775 786-1343): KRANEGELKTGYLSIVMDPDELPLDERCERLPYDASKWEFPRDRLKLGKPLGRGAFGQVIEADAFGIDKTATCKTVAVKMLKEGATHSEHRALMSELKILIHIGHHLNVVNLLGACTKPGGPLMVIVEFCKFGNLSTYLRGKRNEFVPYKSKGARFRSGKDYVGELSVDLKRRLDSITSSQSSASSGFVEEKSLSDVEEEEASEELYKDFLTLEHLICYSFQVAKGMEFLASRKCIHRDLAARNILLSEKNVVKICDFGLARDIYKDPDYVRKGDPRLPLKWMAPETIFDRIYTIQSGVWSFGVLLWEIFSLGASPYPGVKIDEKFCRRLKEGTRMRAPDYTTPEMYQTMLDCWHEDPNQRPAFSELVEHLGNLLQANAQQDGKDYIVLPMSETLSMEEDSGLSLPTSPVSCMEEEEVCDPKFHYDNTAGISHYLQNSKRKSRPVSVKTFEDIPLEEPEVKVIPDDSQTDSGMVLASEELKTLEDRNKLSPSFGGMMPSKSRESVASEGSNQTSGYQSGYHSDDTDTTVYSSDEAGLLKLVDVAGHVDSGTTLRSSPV

[6] = molecular target: T6, MAP Kinase (ERK-2 isoform) (Rattus norvegicus, UniProt P63086); experiment: Kinase Selectivity Assay MAP Kinase (ERK-2); type: biochemical
T6 construct: polyhistidine (N); host or cells: E. coli
T6 sequence (P63086 whole entry, canonical isoform): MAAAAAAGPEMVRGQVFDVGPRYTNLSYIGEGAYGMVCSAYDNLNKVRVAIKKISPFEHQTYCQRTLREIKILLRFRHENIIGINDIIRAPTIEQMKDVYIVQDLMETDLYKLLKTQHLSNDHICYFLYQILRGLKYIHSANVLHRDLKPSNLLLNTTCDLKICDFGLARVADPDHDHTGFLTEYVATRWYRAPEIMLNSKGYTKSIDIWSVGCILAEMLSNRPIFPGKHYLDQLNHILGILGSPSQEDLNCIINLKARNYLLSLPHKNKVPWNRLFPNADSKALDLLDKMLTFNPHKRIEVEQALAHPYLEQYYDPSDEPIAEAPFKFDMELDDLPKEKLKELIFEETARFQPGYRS
Experimental: as §1, §2

[7] = molecular target: T7, HER2 (human epidermal growth factor receptor-2) (Homo sapiens, UniProt P04626); experiment: Kinase Selectivity Assay HER2; type: biochemical
T7 construct: begins at amino acid 676 followed by the remainder of the HER2 cytoplasmic domain; polyhistidine (N)
T7 sequence (P04626 676-1255 limits assumed): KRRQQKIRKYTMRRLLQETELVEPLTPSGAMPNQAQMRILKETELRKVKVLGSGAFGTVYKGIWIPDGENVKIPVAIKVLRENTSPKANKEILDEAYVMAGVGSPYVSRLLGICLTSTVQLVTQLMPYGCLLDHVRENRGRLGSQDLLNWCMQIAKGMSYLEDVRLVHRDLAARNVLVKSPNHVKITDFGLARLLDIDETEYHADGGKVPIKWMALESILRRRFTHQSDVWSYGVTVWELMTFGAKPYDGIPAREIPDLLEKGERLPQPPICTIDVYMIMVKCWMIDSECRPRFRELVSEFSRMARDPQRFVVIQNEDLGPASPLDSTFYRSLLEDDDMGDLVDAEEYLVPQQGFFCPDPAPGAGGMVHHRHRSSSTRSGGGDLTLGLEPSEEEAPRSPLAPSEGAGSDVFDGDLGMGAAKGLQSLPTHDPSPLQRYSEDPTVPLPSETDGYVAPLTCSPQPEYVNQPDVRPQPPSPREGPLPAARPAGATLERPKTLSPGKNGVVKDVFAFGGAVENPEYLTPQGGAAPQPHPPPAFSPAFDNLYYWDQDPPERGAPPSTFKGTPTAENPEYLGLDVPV
Experimental: as §1, §2

[8] = molecular target: T8, CDK2 in complex with cyclin A (Homo sapiens, UniProt P24941); experiment: Kinase Selectivity Assay CDK2; type: biochemical
T8 construct: purchased Upstate Biotech
Experimental: as §1, §2

[9] = molecular target: T9, Calmodulin Kinase (calmodulin-dependent protein kinase 2) (Rattus norvegicus, UniProt P11275); experiment: Kinase Selectivity Assay Calmodulin Kinase; type: biochemical
T9 construct: a truncated version of the alpha subunit of the rat protein; purchased New England Biolabs 6060; host or cells: insect cells
Experimental: as §1, §2

[10] = molecular target: T10, Protein Kinase A (Bos taurus, UniProt P00517); experiment: Kinase Selectivity Assay Protein Kinase A; type: biochemical, bovine
T10 construct: purified from bovine heart; purchased Upstate Biotech 14-114; host or cells: bovine heart
Experimental: as §1, §2

[11] = molecular target: Insulin Receptor Kinase (Homo sapiens, UniProt P06213); experiment: Kinase Selectivity Assay Insulin Receptor Kinase; type: biochemical
Sequence of Insulin Receptor Kinase (P06213 980-1352): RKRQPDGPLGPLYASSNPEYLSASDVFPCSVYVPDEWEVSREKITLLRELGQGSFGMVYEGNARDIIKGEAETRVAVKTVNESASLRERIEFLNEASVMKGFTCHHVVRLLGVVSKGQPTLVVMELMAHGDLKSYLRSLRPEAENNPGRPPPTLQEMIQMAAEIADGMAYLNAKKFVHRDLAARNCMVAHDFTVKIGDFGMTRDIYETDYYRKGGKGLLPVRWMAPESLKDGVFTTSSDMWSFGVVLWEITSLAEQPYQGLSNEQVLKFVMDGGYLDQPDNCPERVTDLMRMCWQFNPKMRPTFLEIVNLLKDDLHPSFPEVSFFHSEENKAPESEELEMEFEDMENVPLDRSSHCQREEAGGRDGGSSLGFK
Experimental: as §1, §2

[12] = Kinase Selectivity, Tables 2a-2k, read-out: GSK-3 IC50
[13] = Kinase Selectivity, Tables 2a-2k, read-out: CDK1 IC50
[14] = Kinase Selectivity, Tables 2a-2k, read-out: PDGF-R kinase IC50
[15] = Kinase Selectivity, Tables 2a-2k, read-out: Caseine Kinase 2 IC50
[16] = Kinase Selectivity, Tables 2a-2k, read-out: VEGF-R IC50
[17] = Kinase Selectivity, Tables 2a-2k, read-out: HER2 Kinase IC50
[18] = Kinase Selectivity, Tables 2a-2k

| Compound | IC50 [1, 12] [nM] | IC50 [2, 13] [nM] | IC50 ([2]; Table 1, read-out: CDK1 IC50) [nM] | IC50 [5, 16] [nM] | IC50 ([5]; Table 1, read-out: VEGF-R IC50) [nM] | IC50 [7, 17] [nM] | IC50 ([7]; Table 1, read-out: HER2 IC50) [nM] | IC50 [8, 18] [nM] | further results |
| --- | --- | --- | --- | --- | --- | --- | --- | --- | --- |
| Cc1ccsc1C(=O)n1nc(Nc2ccc(S(N)(=O)=O)cc2)nc1N [Cpd 15, 4-[[5-amino-1-[(3-methyl-2-thienyl)carbonyl]-1H-1,2,4-triazol-3-yl]amino]-benzenesulfonamide] | 1.8 | 4.8 | 4.8 | – | – | – | – | – | IC50 [3, 14]: 79 nM; IC50 [4, 15]: > 100000 nM |
| Cc1ccc(F)c(C(=O)n2nc(Nc3ccc(S(N)(=O)=O)cc3)nc2N)c1F [Cpd 2, 4-[[5-amino-1-(2,6-difluoro-3-methylbenzoyl)-1H-1,2,4-triazol-3-yl]amino]-benzenesulfonamide] | – | 3 | 3.2 | 366 | 366 | – | – | – | IC50 [1]: 31 nM; IC50 [3]: 10700 nM; IC50 [6]: 9480 nM |
| Nc1nc(Nc2cccc(Cl)c2)n(C(=O)c2ccccc2)n1 [Cpd 127, 1-benzoyl-N^5-(3-chlorophenyl)-1H-1,2,4-triazole-3,5-diamine] | > 100000 | > 100000 | – | > 100000 | – | > 100000 | – | – | – |
| CNc1nc(N)n(C(=O)c2sccc2C)n1 [Cpd 79, N^3-methyl-1-[(3-methyl-2-thienyl)carbonyl]-1H-1,2,4-triazole-3,5-diamine] | – | – | > 100000 | – | > 100000 | – | > 100000 | – | IC50 ([8]; Table 1): > 100000 nM |
| CN(C)CCNS(=O)(=O)c1ccc(Nc2nc(N)n(C(=O)c3c(F)cccc3F)n2)cc1 [Cpd 106] | – | – | 125 | – | 559 | – | 37200 | – | IC50 ([8]; Table 1): 1 nM |
| Nc1nc(Nc2ccc(S(N)(=O)=O)cc2)nn1C(=O)Nc1c(F)cccc1F [Cpd 67, 5-amino-3-[[4-(aminosulfonyl)phenyl]amino]-N-(2,6-difluorophenyl)-1H-1,2,4-triazole-1-carboxamide] | – | – | 3.7 | – | 38 | – | 52 | – | IC50 ([8]; Table 1): 1.4 nM |
| Nc1nc(Nc2ccccc2)nn1C(=O)c1c(F)cccc1F [Cpd 61, 1-(2,6-Difluorobenzoyl)-N^3-phenyl-1H-1,2,4-triazole-3,5-diamine] | 55 | 180 | – | 72 | – | 820 | – | 49 | – |
| Nc1nc(Nc2ccccc2)n(C(=O)c2ccccc2)n1 [Cpd 125, 1-benzoyl-N^5-phenyl-1H-1,2,4-triazole-3,5-diamine] | > 100000 | > 100000 | – | > 100000 | – | > 100000 | – | 7300 | – |
| Nc1nc(Nc2ccccc2)nn1C(=O)c1ccccc1 [Cpd 62, 1-benzoyl-N^3-phenyl-1H-1,2,4-triazole-3,5-diamine] | 73 | 530 | – | 64 | – | 410 | – | 290 | – |
| Cc1cc(C)c(C(=O)n2nc(Nc3ccc(S(N)(=O)=O)cc3)nc2N)s1 [Cpd 33, 4-[[5-amino-1-[(3,5-dimethyl-2-thienyl)carbonyl]-1H-1,2,4-triazol-3-yl]amino]-benzenesulfonamide] | – | – | – | 23 | – | – | – | – | IC50 [1]: 4 nM; IC50 [9]: > 10000 nM; IC50 [10]: > 100000 nM; IC50 ([2]; CDK1 IC50, Kinase Selectivity, Tables 2a-2k): 3 nM; IC50 ([2]; CDK1 IC50, Table 1): 3.2 nM; IC50 [5]: 23.4 nM; IC50 [3]: 39 nM; IC50 [6]: > 10000 nM; IC50 [7]: 5 nM; IC50 [4]: > 10000 nM; IC50 [11]: 316 nM |
| Nc1nc(Nc2cccc(Cl)c2)nn1C(=O)c1c(F)cccc1F [Cpd 63, N^3-(3-chlorophenyl)-1-(2,6-difluorobenzoyl)-1H-1,2,4-triazole-3,5-diamine] | 73 | 79 | – | 320 | – | 150 | – | 56 | – |
| Nc1nc(Nc2cccc(Cl)c2)n(C(=O)c2c(F)cccc2F)n1 [Cpd 126, N^5-(3-chlorophenyl)-1-(2,6-difluorobenzoyl)-1H-1,2,4-triazole-3,5-diamine] | > 100000 | > 100000 | – | > 100000 | – | ~100000 | – | – | – |
| Nc1nc(Nc2ccccc2)nn1C(=O)Nc1ccccc1 [Cpd 65, 5-amino-N-phenyl-3-(phenylamino)-1H-1,2,4-triazole-1-carboxamide] | 100 | 670 | – | 180 | – | 790 | – | 410 | – |
| Nc1nc(Nc2ccc(S(N)(=O)=O)cc2)nn1C(=S)Nc1c(F)cccc1F [Cpd 66, 5-amino-3-[[4-(aminosulfonyl)phenyl]amino]-N-(2,6-difluorophenyl)-1H-1,2,4-triazole-1-carbothioamide] | – | 0.6 | 0.6 | – | – | 60 | 60 | – | IC50 [3, 14]: 1580 nM; IC50 [4, 15]: > 100000 nM |
| CCNS(=O)(=O)c1ccc(Nc2nc(N)n(C(=O)c3c(F)cccc3F)n2)cc1 [Cpd 76, 4-[[5-amino-1-(2,6-difluorobenzoyl)-1H-1,2,4-triazol-3-yl]amino]-N-ethyl-benzenesulfonamide] | – | – | 12 | – | 530 | – | ~1000 | – | IC50 ([8]; Table 1): 4.4 nM |
| Nc1nc(Nc2ccccc2)n(C(=O)c2c(F)cccc2F)n1 [Cpd 124, 1-(2,6-difluorobenzoyl)-N^5-phenyl-1H-1,2,4-triazole-3,5-diamine] | 3000 | 2200 | – | 4800 | – | 820 | – | 1700 | – |
| Nc1nc(Nc2ccc(S(N)(=O)=O)cc2)nn1C(=O)c1c(F)ccc(Cl)c1F [Cpd 78, 4-[[5-amino-1-(3-chloro-2,6-difluorobenzoyl)-1H-1,2,4-triazol-3-yl]amino]-benzenesulfonamide] | – | – | 6.6 | – | 420 | – | 780 | – | IC50 ([8]; Table 1): 1.7 nM |
| Nc1nc(Nc2cccc(Cl)c2)nn1C(=O)c1ccccc1 [Cpd 64, 1-benzoyl-N^3-(3-chlorophenyl)-1H-1,2,4-triazole-3,5-diamine] | 21 | 210 | – | 51 | – | 76 | – | 200 | – |
| Cc1ccc(F)c(C(=O)n2nc(Nc3ccc(-n4ccnc4)cc3)nc2N)c1F [Cpd 94, 1-(2,6-difluoro-3-methylbenzoyl)-N^3-[4-(1H-imidazol-1-yl)phenyl]-1H-1,2,4-triazole-3,5-diamine] | – | – | 272 | – | 409 | – | 147 | – | – |
| CCc1ccc(C(=O)n2nc(Nc3ccc(S(=O)(=O)N(C)C)cc3)nc2N)s1 [Cpd 86, 4-[[5-amino-1-[(5-ethyl-2-thienyl)carbonyl]-1H-1,2,4-triazol-3-yl]amino]-N,N-dimethyl-benzenesulfonamide] | – | – | 109 | – | 86.9 | – | 413 | – | – |
